We go through 14 molecules from patent publication USRE49735E1 (BRISTOL-MYERS SQUIBB COMPANY, priority 2010, dated 2023).

Some results are limits rather than exact numbers.

This assay deals with human mGluR5A (Homo sapiens, UniProt P41594). The assay can be described thus: mGluR5 FLIPR Assay. The conditions noted are these: positive modulator activity; HEK293 (ZF) cells with human mGluR5A and rat GLAST; Ca++ response to ~EC10 glutamate. It is filed as cell-based.
Chain of human mGluR5A (P41594 21-1180 isoform P41594-2): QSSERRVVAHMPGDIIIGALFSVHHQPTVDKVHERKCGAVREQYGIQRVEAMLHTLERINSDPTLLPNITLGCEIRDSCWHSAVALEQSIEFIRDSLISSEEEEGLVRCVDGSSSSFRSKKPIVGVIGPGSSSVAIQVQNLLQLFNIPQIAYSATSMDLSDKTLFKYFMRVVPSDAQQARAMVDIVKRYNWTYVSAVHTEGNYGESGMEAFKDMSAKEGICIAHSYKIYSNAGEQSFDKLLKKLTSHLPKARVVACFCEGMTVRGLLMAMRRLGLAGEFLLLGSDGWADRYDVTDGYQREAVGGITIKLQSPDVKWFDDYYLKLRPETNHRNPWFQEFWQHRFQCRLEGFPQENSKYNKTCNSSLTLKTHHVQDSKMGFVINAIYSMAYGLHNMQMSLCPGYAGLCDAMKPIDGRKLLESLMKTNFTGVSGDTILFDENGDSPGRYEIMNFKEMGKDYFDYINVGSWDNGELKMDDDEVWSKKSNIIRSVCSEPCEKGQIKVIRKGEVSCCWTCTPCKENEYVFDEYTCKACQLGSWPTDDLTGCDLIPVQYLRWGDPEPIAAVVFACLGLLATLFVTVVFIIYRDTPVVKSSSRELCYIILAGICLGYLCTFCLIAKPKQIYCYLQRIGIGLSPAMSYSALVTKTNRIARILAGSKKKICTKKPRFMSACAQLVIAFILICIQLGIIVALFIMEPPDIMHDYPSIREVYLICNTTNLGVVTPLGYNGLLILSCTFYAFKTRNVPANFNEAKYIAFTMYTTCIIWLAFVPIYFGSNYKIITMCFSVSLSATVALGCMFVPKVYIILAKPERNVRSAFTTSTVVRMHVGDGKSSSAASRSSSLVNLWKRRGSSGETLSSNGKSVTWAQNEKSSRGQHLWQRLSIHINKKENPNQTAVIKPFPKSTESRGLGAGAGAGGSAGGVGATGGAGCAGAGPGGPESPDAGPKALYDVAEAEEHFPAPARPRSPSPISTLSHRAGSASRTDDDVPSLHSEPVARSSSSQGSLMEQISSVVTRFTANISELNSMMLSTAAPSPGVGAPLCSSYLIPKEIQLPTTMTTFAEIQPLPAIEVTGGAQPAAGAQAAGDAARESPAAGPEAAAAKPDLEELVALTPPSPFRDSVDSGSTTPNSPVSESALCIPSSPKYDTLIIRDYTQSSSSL
Usually EC50 stands for the concentration that produces a half-maximal response. On to `COc1cccc([C@H]2OC(=O)N[C@@H]2c2cccc(C#Cc3ccccc3F)c2)c1` [Example 121, (4R,5R)-4-(3-((2-fluorophenyl)ethynyl)phenyl)-5-(3-methoxyphenyl)oxazolidin-2-one], for which the EC50 was less than 100 nM. The same measure for `COc1cccc([C@H]2OC(=O)N[C@@H]2c2cccc(C#Cc3cc(F)cc(F)c3)c2)c1` [Example 123, (4R,5R)-4-(3-((3,5-difluorophenyl)ethynyl)phenyl)-5-(3-methoxyphenyl)oxazolidin-2-one]: 100 to 1000 nM. The same measure for `COc1cccc([C@@H]2OC(=O)N[C@H]2c2cccc(C#Cc3cc(F)cc(F)c3)c2)c1` [Example 124, (4S,5S)-4-(3-((3,5-difluorophenyl)ethynyl)phenyl)-5-(3-methoxyphenyl)oxazolidin-2-one]: more than 1000 nM; for `COc1cccc([C@H]2OC(=O)N[C@@H]2c2cccc(C#Cc3ccccc3C(F)(F)F)c2)c1` [Example 125, (4R,5R)-5-(3-methoxyphenyl)-4-(3-((2-(trifluoromethyl)phenyl)ethynyl)phenyl)oxazolidin-2-one]: more than 30000 nM. The same measure for `COc1cccc([C@@H]2OC(=O)N[C@H]2c2cccc(C#Cc3ccccc3C(F)(F)F)c2)c1` [Example 126, (4S,5S)-5-(3-methoxyphenyl)-4-(3-((2-(trifluoromethyl)phenyl)ethynyl)phenyl)oxazolidin-2-one]: more than 30000 nM; for `COc1cccc([C@H]2OC(=O)N[C@@H]2c2cccc(C#Cc3ccc(F)cc3F)c2)c1` [Example 127, (4R,5R)-4-(3-((2,4-difluorophenyl)ethynyl)phenyl)-5-(3-methoxyphenyl)oxazolidin-2-one]: 100 to 1000 nM. `COc1cccc([C@@H]2OC(=O)N[C@H]2c2cccc(C#Cc3ccc(F)cc3F)c2)c1` [Example 128, (4S,5S)-4-(3-((2,4-difluorophenyl)ethynyl)phenyl)-5-(3-methoxyphenyl)oxazolidin-2-one] came in with an EC50 of more than 1000 nM. Next, `COc1cccc([C@H]2OC(=O)N[C@@H]2c2cccc(C#Cc3cccc(C(F)(F)F)c3)c2)c1` [Example 129, (4R,5R)-5-(3-methoxyphenyl)-4-(3-((3-(trifluoromethyl)phenyl)ethynyl)phenyl)oxazolidin-2-one]: more than 1000 nM; `COc1cccc([C@@H]2OC(=O)N[C@H]2c2cccc(C#Cc3cccc(C(F)(F)F)c3)c2)c1` [Example 130, (4S,5S)-5-(3-methoxyphenyl)-4-(3-((3-(trifluoromethyl)phenyl)ethynyl)phenyl)oxazolidin-2-one]: more than 1000 nM. The same measure for `COc1cccc([C@H]2OC(=O)N[C@@H]2c2cccc(C#Cc3ccc(F)cc3)c2)c1` [Example 131, (4R,5R)-4-(3-((4-fluorophenyl)ethynyl)phenyl)-5-(3-methoxyphenyl)oxazolidin-2-one]: less than 100 nM.

On to `COc1cccc([C@@H]2OC(=O)N[C@H]2c2cccc(C#Cc3ccc(F)cc3)c2)c1` [Example 132, (4S,5S)-4-(3-((4-fluorophenyl)ethynyl)phenyl)-5-(3-methoxyphenyl)oxazolidin-2-one], for which the EC50 was more than 1000 nM. Next, `COc1cccc([C@H]2OC(=O)N[C@@H]2c2cccc(C#Cc3cccc(F)c3)c2)c1` [Example 133, (4R,5R)-4-(3-((3-fluorophenyl)ethynyl)phenyl)-5-(3-methoxyphenyl)oxazolidin-2-one]: less than 100 nM.

In turn, `COc1cccc([C@@H]2OC(=O)N[C@H]2c2cccc(C#Cc3cccc(F)c3)c2)c1` [Example 134, (4S,5S)-4-(3-((3-fluorophenyl)ethynyl)phenyl)-5-(3-methoxyphenyl)oxazolidin-2-one] yielded an EC50 of more than 1000 nM. The same measure for `O=C1N[C@H](c2cc(C#Cc3cccnc3)cnc2F)[C@@H](c2cccc(F)c2)O1` [Example 139, (4R,5R)-4-(2-Fluoro-5-(pyridin-3-ylethynyl)pyridin-3-yl)-5-(3-fluorophenyl)oxazolidin-2-one]: less than 100 nM.
